Patent US8476274B2, “Biaryl spiroaminooxazoline analogues as Alpha2C adrenergic receptor modulators” (Merck Sharp & Dohme Corp., priority 2008, dated 2013)

Molecular target: T1, α2C receptor (Homo sapiens, UniProt P18825)
T1 sequence (P18825 1-462): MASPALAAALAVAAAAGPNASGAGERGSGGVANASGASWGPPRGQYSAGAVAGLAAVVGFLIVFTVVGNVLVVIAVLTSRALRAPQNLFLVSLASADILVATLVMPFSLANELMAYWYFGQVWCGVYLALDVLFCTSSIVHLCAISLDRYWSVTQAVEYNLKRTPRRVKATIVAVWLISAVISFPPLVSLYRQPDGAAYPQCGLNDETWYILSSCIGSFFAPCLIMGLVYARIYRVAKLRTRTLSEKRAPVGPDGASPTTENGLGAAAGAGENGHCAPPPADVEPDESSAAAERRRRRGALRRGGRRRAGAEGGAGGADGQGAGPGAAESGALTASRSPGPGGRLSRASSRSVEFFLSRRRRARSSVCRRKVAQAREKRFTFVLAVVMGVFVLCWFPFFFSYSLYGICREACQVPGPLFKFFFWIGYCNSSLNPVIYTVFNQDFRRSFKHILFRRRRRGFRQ
Test: binding inhibition (Ki) at the α2C receptor
Conditions: compounds classed as α2C antagonists; read-out: Ki at the α2C receptor subtype
Experimental: A compound is defined to be an antagonist of the alpha-2C receptor if the compounds's efficacy at the α2C receptor is <30% Emax (GTPγS assay) and the binding inhibition of at the α2C receptor (Ki) is <500 nM, preferably <200 nM, and most preferably <20 nM.
Efficacy agonist activity values (Emax, GTPγS assay) for α2A and α2C were determined by following the general procedure detailed by Umland et. al (“Receptor reserve analysis of the human α2c-adrenoceptor using [^35S]GTPγS and cAMP functional assays” European Journal of Pharmacology 2001, 411, 211-221). For the purposes of the present invention, a compound is defined to be a specific or at least functionally selective agonist of the α2C receptor subtype if the compound's efficacy at the α2C receptor is ≧30% Emax (GTPγS assay) and its efficacy at the α2A receptor is 35% Emax (GTPγS assay). Additionally, for the purposes of this invention, a compound is defined to be an antagonist of the α2C receptor subtype if the compound's efficacy at the α2C receptor is <30% Emax (GTPγS assay) and the Ki at the α2C receptor subtype was <500 nM, preferentially <200 nM, and most preferentially <20 nM.

SMILES | Ki [µM]
Cc1noc(C)c1-c1cccc2c1CC1(CC2)COC(N)=N1 (racemic) [(±)-113] | < 0.2
Cc1n[nH]c(C)c1-c1cccc2c1CC1(CC2)COC(N)=N1 (racemic) [(±)-114] | < 0.2
NC1=NC2(CCc3c(cccc3-c3cncs3)C2)CO1 (racemic) [(±)-129] | < 0.2
COc1ncc(-c2cccc3c2CCC2(COC(N)=N2)C3)cn1 (racemic) [(±)-133] | < 0.2
NC1=N[C@]2(CCc3cc(Br)ccc3C2)CO1 (racemic) [(±)-340] | < 0.2
NC1=N[C@@]2(CCc3c(cccc3-c3ccoc3)C2)CO1 [Compound 21I] | < 0.2
Cn1nccc1-c1cccc2c1CC[C@]1(COC(N)=N1)C2 [Compound 21J] | < 0.2
NC1=N[C@@]2(CCc3c(cccc3-c3cccnc3)C2)CO1 [Compound 21K] | < 0.2
NC1=N[C@]2(CCc3c(cccc3-c3cncs3)C2)CO1 [Compound 119] | < 0.2
NC1=N[C@@]2(CCc3ccc(-c4cncnc4)cc3C2)CO1 [Compound 142] | < 0.2
NC1=N[C@@]2(CCc3cccc(-c4ccccc4)c3C2)CO1 [Compound 143] | < 0.2
NC1=N[C@@]2(CCc3cccc(-c4cccnc4)c3C2)CO1 [Compound 145] | < 0.2
NC1=N[C@]2(CCc3cccc(-c4cncnc4)c3C2)CO1 [Compound 149] | < 0.2
Cc1ccncc1-c1cccc2c1C[C@]1(CC2)COC(N)=N1 [Compound 150] | < 0.2
Cc1ccncc1-c1cccc2c1C[C@@]1(CC2)COC(N)=N1 [Compound 151] | < 0.2
CC1=N[C@@]2(CCc3c(cccc3-c3cncnc3)C2)CN1 [Compound 213] | < 0.2
NC1=N[C@@]2(CCc3c(cccc3-c3ccco3)C2)CN1 [Compound 238] | < 0.2

More lines, now with the values ahead:

Ki [µM] | SMILES
< 0.2 | NC1=NC2(CCc3cccc(-c4ccccc4)c3C2)CO1 (racemic) [(±)-1G]
< 0.2 | CN(C)c1ncc(-c2cccc3c2CC2(CC3)COC(N)=N2)cn1 (racemic) [(±)-3]
< 0.2 | N#Cc1cccc(-c2cccc3c2CC2(CC3)COC(N)=N2)c1 (racemic) [(±)-6J]
< 0.2 | N#Cc1ccc(-c2cccc3c2CC2(CC3)COC(N)=N2)cc1 (racemic) [(±)-6K]
< 0.2 | Cn1nccc1-c1cccc2c1CC1(CC2)COC(N)=N1 (racemic) [(±)-6L]
< 0.2 | NC1=NC2(CO1)Cc1ccc(-c3ccccc3)cc1C2 (racemic) [(±)-8E]
< 0.2 | NC1=NC2(CO1)Cc1ccc(-c3cccnc3)cc1C2 (racemic) [(±)-8I]
< 0.2 | Cn1nccc1-c1ccc2c(c1)CC1(COC(N)=N1)C2 (racemic) [(±)-8R]
< 0.2 | Cc1noc(C)c1-c1ccc2c(c1)CC1(COC(N)=N1)C2 (racemic) [(±)-8S]
< 0.2 | NC1=NC2(CO1)Cc1ccc(-c3cncnc3)cc1C2 (racemic) [(±)-8]
< 0.2 | Cc1ncnc(C)c1-c1ccc2c(c1)CC1(CC2)COC(N)=N1 (racemic) [(±)-10B]
< 0.2 | NC1=NC2(CCc3ccc(-c4cccnn4)cc3C2)CO1 (racemic) [(±)-11]
< 0.2 | COc1ccc(-c2cncnc2)c2c1CCC1(COC(N)=N1)C2 (racemic) [(±)-16]
< 0.2 | NC1=NC2(CO1)Cc1cccc(-c3cn[nH]c3)c1C2 (racemic) [(±)-50K]
< 0.2 | Cc1n[nH]c(C)c1-c1cccc2c1CC1(COC(N)=N1)C2 (racemic) [(±)-50L]
< 0.2 | Cc1noc(C)c1-c1cccc2c1CC1(COC(N)=N1)C2 (racemic) [(±)-50M]
< 0.2 | NC1=NC2(CCO1)CCc1c(cccc1-c1cncnc1)C2 (racemic) [(±)-57]
< 0.2 | CC1CC2(COC(N)=N2)Cc2cccc(-c3cncnc3)c21 (racemic) [(±)-58]
< 0.2 | Cc1n[nH]c(C)c1-c1ccc2c(c1)CC1(CC2)COC(N)=N1 (racemic) [(±)-101]
< 0.2 | COc1cncc(-c2cccc3c2CC2(CC3)COC(N)=N2)c1 (racemic) [(±)-112]
